Data reported in patent publication US20170334919A1, “2-((4-AMINO-3-(3-FLUORO-5-HYDROXYPHENYL)-1H-PYRAZOLO[3,4-D]PYRIMIDIN-1 -YL)METHYL)-3-(2-(TRIFLUORO-MET HYL)BENZYL)QUINAZOLIN-4(3H)-ONE DERIVATIVES AND THEIR USE AS PHOSPHOINOSITIDE 3-KINASE INHIBITORS” (RESPIVERT LTD., priority 2013, published 2017).

What was measured:
[1] = test system: PI3K γ (Akt phosphorylation in d-U937 cells); experiment: PI3K γ cell based assay: MCP-1-induced Akt phosphorylation in d-U937 cells; conditions: Homo sapiens, dU937; inhibition of induced Akt phosphorylation; read-out: Cellular Activity REC50 values in d-U937 cells, MCP-1 stimulus
Protocol: As a means of assessing the activation of PI3K γ in response to stimuli, the phosphorylation status of the protein, Akt, a downstream product of PI3K γ signalling, was determined following stimulation with MCP-1.
U937 cells were differentiated to macrophage-type cells by incubation with PMA (100 ng/mL) for 48 to 72 hr. Cells were then pre-incubated with either the test compound or vehicle for 2 hr and were then stimulated briefly with MCP-1 (10 nM, 1 min) and the reaction stopped by replacing the media with 4% formaldehyde solution. […] After washing with buffer (PBS containing 0.1% Triton X-100), cells were incubated with an HRP-conjugated secondary antibody (Dako) and the resultant signal was determined colorimetrically (OD: 450 nm with a reference wavelength of 655 nm) using TMB substrate (substrate reagent pack supplied by R&D Systems, Inc.).
This reaction was stopped by addition of 1N H2SO4 solution (100 μL). […] After washing with buffer (PBS containing 0.1% Triton X-100) 1% SDS (100 μL) was added to each well and the plates were shaken lightly for 1 hr prior to measuring the absorbance at 595 nm (Varioskan® Flash, Thermo-Fisher Scientific). The measured OD450-655 readings were corrected for cell number by dividing the OD450-655 by the OD595 readings. The ratio of pAkt signal to total Akt signal was used to quantitate the extent of PI3K γ activation. […]

d-U937 cells = experiment: MTT assay, cell viability; format: cell-based, human; conditions: 10 μg/mL
Protocol: PMA-differentiated U937 cells were pre-incubated with test compound (10 μg/mL) or vehicle for 4 hr in 5% FCS or 10% FCS for 24 hr. The supernatant was replaced with new media (200 μL) and MTT stock solution (10 μL, 5 mg/mL) was added to each well. After 1 hr incubation, the media were removed, 200 μL of DMSO was added to each well and the plates were shaken lightly for 1 hr prior to reading the absorbance at 550 nm. The percentage loss of cell viability was calculated for each well relative to vehicle (0.5% DMSO)-treatment.

[2] = test system: poly-I:C-induced cell accumulation in mice airways; experiment: Poly-I:C-induced cell accumulation in mice; format: in vivo, A/J mice
Protocol: Specific pathogen-free A/J mice (males, 5 weeks old) were dosed with poly (I:C)-LMW (1 mg/mL, 40 μL) (InvivoGen, San Diego, Calif., USA) intranasally twice daily for 3 days under anaesthasia (3% isoflurane). Test substances were dosed intra-nasally (50 μL in 10% DMSO/isotonic saline vehicle) 2 hr before each poly-I:C treatment. At 24 hr after the last poly-I:C challenge, animals were anesthetized, the trachea was cannulated and bronchial alveolar lavage (BAL) was obtained by instilling into and then withdrawing from the lungs, isotonic saline (100 mL/kg). Total cell numbers in the BALF samples were measured using a haemocytometer under a phase-contrast microscope.
The proportions of alveolar macrophages and neutrophils were determined by FACS analysis using anti-mouse MOMA2-FITC (macrophage) or anti-mouse 7/4-FITC (neutrophil). Cells were suspended in PBS and incubated with anti-MOMA2-FITC (2 μg/mL, Catalogue no SM065F, Acris Antibodies GmbH, Herford, Germany) or anti-7/4-FITC (2 μg/mL, Catalogue no CL050F, Acris Antibodies GmbH, Herford, Germany) for 30 min at 30° C., and then counterstained with propidium iodide (2 μg/mL) to allow exclusion of necrotic cells. The cells were washed with PBS, and transferred to FACS tubes. Samples was set in a flow cytometer (ALTRA II; Beckman Coulter Japan, Tokyo, Japan), and a single-parameter FL2 [PMT2] (FITC) histogram with log x-axis was plotted to illustrate relative intensity of FITC. Data files were stored for subsequent analysis using Kaluza analysis software (ver. 1.2) to calculate the proportion of each cell type.

[3] = 0.002 mg/mL intra-nasal + Poly I:C
[4] = 0.02 mg/mL intra-nasal + Poly I:C
[5] = 0.2 mg/mL intra-nasal + Poly I:C

EC50 [1]: 16.5 nM
Compound: COCCOCCOCC#Cc1cccc2nc(Cn3nc(-c4cc(O)cc(F)c4)c4c(N)ncnc43)n(Cc3ccccc3C(F)(F)F)c(=O)c12 [Compound (I), 2-((4-Amino-3-(3-fluoro-5-hydroxyphenyl)-1H-pyrazolo[3,4-d]pyrimidin-1-yl)methyl)-5-(3-(2-(2-methoxyethoxy)ethoxy)prop-1-yn-1-yl)-3-(2-(trifluoromethyl)benzyl)quinazolin-4(3H)-one]
Cell Viability MTT Assay in d-U937 cells at 4 hr (d-U937 cells; 4 hr): −ve (−ve indicates a value of <30% inhibition at 10 μg/mL)
Cell Viability MTT Assay in d-U937 cells at 24 hr (d-U937 cells; 24 hr): −ve (−ve indicates a value of <30% inhibition at 10 μg/mL)
Cell numbers in BALF, Macrophages, % inhibition [2, 3]: 49%
Cell numbers in BALF, Neutrophils, % inhibition [2, 3]: 0.3 (43) %
Cell numbers in BALF, Macrophages, % inhibition [2, 4]: 0.3 (69) %
Cell numbers in BALF, Neutrophils, % inhibition [2, 4]: 65%
Cell numbers in BALF, Macrophages, % inhibition [2, 5]: 0.3 (79) %
Cell numbers in BALF, Neutrophils, % inhibition [2, 5]: 0.2 (77) %
potency versus compound A, poly-I:C-induced macrophage and neutrophil accumulation into BALF ([2]; direct comparison, FIG. 1): significantly greater potency than compound A
